From US4643734A, “Lactide/caprolactone polymer, method of making the same, composites thereof, and prostheses produced therefrom” (Hexcel Corporation, priority 1983, dated 1987)

Tests used:
Assay type in all cases: cell-based
[1] = tested on: Salmonella typhimurium TA 100; test: Ames plate incorporation assay, TA100
Description: (§1) A Salmonella/mammalian mutagenicity test was performed to determine if a saline extract of the polymer would cause mutagenic changes in histidine dependent mutant strains of Salmonella typhimurium. The method of Ames et al as reported in Methods for Detecting Carcinogens and Mutagens with the Salmonella/Mammalian Mutagenicity Test (1975) was employed.
(§2) Test sample--a polymer, saline (0.85%) extract was prepared by adding 4 grams of sample to 20 ml of saline and autoclaving at 121° C. for one hour.
(§3) Bacterial test strains--four strains of specially constructed histidine mutants of Salmonella typhimurium, TA 98, TA 100, TA 1535 and TA 1537, developed by Dr. B. Ames, University of California, Berkeley were employed.
Activation system--S-9 Activation Mix is composed mainly of the microsomal fraction from a rat liver homogenate. The S-9 mix was used for the detection of mutagenic properties that require metabolic biotransformation to their active mutagenic form. S-9 mix employed was Aroclor 1254--induced(Litton Bionetics, Inc., Kensington, Md., Lot #REL 091).
Negative controls--the solvent elution vehicle was test with each bacterial strain to determine the number of spontaneous revertant colonies for each test population.
MDA requires metabolic activation to induce mutagenic results; therefore, it was tested (on strain TA 100 only) with and without S-9 mix to verify the bioactivation properties of the S-9 rat liver preparation.
Ames plate incorporation assay--the principle technique of the Ames test consists of a plate incorporation assay from which direct revertant colony counts are obtained from the test plates. Minimal nutrient agar plates are seeded with both a tester strain population and the test solution suspended together in a semi-solid overlay. Test plates are prepared providing for either the presence or absence of S-9 activation mix supplemented in the overlay. Following a 48 hour incubation period at 30° C., the number of colonies in each test plate are recorded as revertant colonies for comparison with spontaneous revertant rates for each strain.

[2] = tested on: Salmonella typhimurium TA 1535; test: Ames plate incorporation assay, TA1535
Description: as §1, §2, §3
(§4) Activation system--S-9 Activation Mix is composed mainly of the microsomal fraction from a rat liver homogenate. The S-9 mix was used for the detection of mutagenic properties that require metabolic biotransformation to their active mutagenic form. […]
(§5) Ames plate incorporation assay--the principle technique of the Ames test consists of a plate incorporation assay from which direct revertant colony counts are obtained from the test plates. […] Following a 48 hour incubation period at 30° C., the number of colonies in each test plate are recorded as revertant colonies for comparison with spontaneous revertant rates for each strain.

[3] = tested on: Salmonella typhimurium TA 98; test: Ames plate incorporation assay, TA98
Description: as §1, §2, §3, §4, §5

[4] = tested on: Salmonella typhimurium TA 1537; test: Ames plate incorporation assay, TA1537
Description: as §1, §2, §3, §4, §5

SMILES	Number of Revertant Colonies (Average of Duplicate Plates) ([1]; TA100, w/S-9)	Number of Revertant Colonies (Average of Duplicate Plates) ([1]; TA100, without S-9)	Number of Revertant Colonies (Average of Duplicate Plates) ([2]; TA1535, w/S-9)	Number of Revertant Colonies (Average of Duplicate Plates) ([2]; TA1535, without S-9)	Number of Revertant Colonies (Average of Duplicate Plates) ([3]; TA98, w/S-9)	Number of Revertant Colonies (Average of Duplicate Plates) ([3]; TA98, without S-9)	Number of Revertant Colonies (Average of Duplicate Plates) ([4]; TA1537, w/S-9)	Number of Revertant Colonies (Average of Duplicate Plates) ([4]; TA1537, without S-9)
CN(C)c1ccc(N=NS(=O)(=O)[O-])cc1.[Na+] [Dexon]	388.5	377.0	26.5	28.0	430.0	422.0	230.0	216.0
Nc1ccc(Cc2ccc(N)cc2)cc1 [MDA, methylene dianiline]	223.0	73.0	–	–	–	–	–	–
